From patent US20080138411A1, “Modified Release Formulations Of Selective Serotonin Re-Uptake Inhibitors” (priority 2002, published 2008)
Structures can show the parent of a compound that is named as a salt. Where two headings read alike, the source gives them in different places.

What was measured:
[1] = cited from earlier work
[2] = Particle size measurement of Citalopram HBr, Paroxetine HCl and Fluoxetine HCl; format: physicochemical; conditions: for D (v, 0.9) / D (v. 0.1) / Mean, D [4, 3] / Median, D (v, 0.5) / Span / Uniformity: Dispersed in air, Distribution Type: Volume
Method: Particle size measurements were conducted on Paroxetine HCl.

[3] = cited from earlier work; remark: listed apart in the source
[4] = cited from earlier work; remark: listed apart in the source
[5] = cited from earlier work; remark: listed apart in the source
[6] = 30 mg tablets daily for 30 days, normal male subjects
[7] = 30 mg tablets daily for 30 days
[8] = single dose with and without food

CN(C)CCCC1(c2ccc(F)cc2)OCc2cc(C#N)ccc21 (racemic) [Citalopram, (RS)-1-[3-(dimethylamino)propyl]-1-(4-fluorophenyl)-5-phthalancarbonitrile hydrobromide]
absolute bioavailability ([1]; relative to an intravenous dose): about 80%
time at which peak blood levels occur ([1]; single oral dose (40 mg tablet)): about 4 hours

Br.CN(C)CCCC1(c2ccc(F)cc2)OCc2cc(C#N)ccc21 (centres unmarked) [Citalopram HBr Provided by Supplier 1]
Dia.on % (10.0%) ([2]; Dist. Base: Volume): 3.267 µm
Dia.on % (20.0%) ([2]; Dist. Base: Volume): 4.606 µm
Dia.on % (35.0%) ([2]; Dist. Base: Volume): 6.212 µm
Dia.on % (70.0%) ([2]; Dist. Base: Volume): 10.295 µm
Dia.on % (90.0%) ([2]; Dist. Base: Volume): 14.874 µm
Particle size, C.V. ([2]; Dist. Base: Volume): 54.90%
Particle size, Mean ([2]; Dist. Base: Volume): 8.569 µm
Particle size, Median ([2]; Dist. Base: Volume): 7.781 µm
Particle size, Mode ([2]; Dist. Base: Volume): 8,253 µm
SP. Area ([2]; Dist. Base: Volume): 10290 cm^2/cm^2
Span: (D 20.0-D 10.0)/D50 ([2]; Dist. Base: Volume): Span: (D 20.0-D 10.0)/D50 = 0.172

Br.CN(C)CCCC1(c2ccc(F)cc2)OCc2cc(C#N)ccc21 (centres unmarked) [Citalopram HBr Provided by Supplier 2]
D (v, 0.9) [2]: 1191.10 µm
D (v. 0.1) [2]: 1.62 µm
Mean, D [4, 3] [2]: Mean, D [4, 3] = 259.27 µm
Median, D (v, 0.5) [2]: 7.27 µm
Span [2]: Span = 1.637E+02
Uniformity [2]: Uniformity = 3.518E+01

CN(C)CCC[C@@]1(c2ccc(F)cc2)OCc2cc(C#N)ccc21 [Escitalopram, S-(+)-1-[3-(dimethyl-amino)propyl]-1-(β-fluorophenyl)-5-phthalancarbonitrile oxalate]
single and multiple dose pharmacokinetics ([3]; dose range of 10 to 30 mg per day): linear and dose proportional
mean Tmax ([3]; single oral dose (20 mg tablet)): 5 ± 1.5 h

CNCCC(Oc1ccc(C(F)(F)F)cc1)c1ccccc1.Cl (centres unmarked) [Fluoxetine HCl Provided by Supplier 1]
Dia.on % (10.0%) ([2]; Dist. Base: Volume): 7.877 µm
Dia.on % (20.0%) ([2]; Dist. Base: Volume): 10.941 µm
Dia.on % (35.0%) ([2]; Dist. Base: Volume): 15.114 µm
Dia.on % (70.0%) ([2]; Dist. Base: Volume): 29.4885 µm
Dia.on % (90.0%) ([2]; Dist. Base: Volume): 118.199 µm
Particle size, C.V. ([2]; Dist. Base: Volume): 161.24%
Particle size, Mean ([2]; Dist. Base: Volume): 45.505 µm
Particle size, Median ([2]; Dist. Base: Volume): 19.672 µm
SP. Area ([2]; Dist. Base: Volume): 3861 cm^2/cm^2

CNCCC(Oc1ccc(C(F)(F)F)cc1)c1ccccc1.Cl (centres unmarked) [Fluoxetine HCl Provided by Supplier 2]
Dia.on % (10.0%) ([2]; Dist. Base: Volume): 5.668 µm
Dia.on % (20.0%) ([2]; Dist. Base: Volume): 9.337 µm
Dia.on % (35.0%) ([2]; Dist. Base: Volume): 14.546 µm
Dia.on % (70.0%) ([2]; Dist. Base: Volume): 42.5575 µm
Dia.on % (90.0%) ([2]; Dist. Base: Volume): 296.388 µm
Particle size, C.V. ([2]; Dist. Base: Volume): 144.70%
Particle size, Mean ([2]; Dist. Base: Volume): 86.383 µm
Particle size, Median ([2]; Dist. Base: Volume): 20.638 µm
SP. Area ([2]; Dist. Base: Volume): 5004 cm^2/cm^2

Fc1ccc([C@@H]2CCNC[C@H]2COc2ccc3c(c2)OCO3)cc1 [Paroxetine, (−)-trans-4R-(4′-fluorophenyl)-3S[(3′,4′-methylenedioxyphenoxy)methyl]piperidine hydrochloride (hemihydrate)]
D (v, 0.9) [2]: D (v, 0.9) = 16.56 µm
D (v. 0.1) [2]: D (v. 0.1) = 0.85 […]mMedian,
Mean, D [4, 3] [2]: Mean, D [4, 3] = 11.02 µm
Median, D (v, 0.5) [2]: D (v, 0.5) = 4.44 µm
Span [2]: Span = 3.541E+00
Uniformity [2]: Uniformity = 1.980E+00
Cmax at steady state, mean [4, 6]: 61.7 ng/mL
Cmin at steady state, mean [4, 6]: 30.7 ng/mL
Tmax at steady state, mean [4, 6]: 5.2 h
t1/2 at steady state, mean [4, 6]: 21.0 h
steady state Cmax relative to prediction from single dose studies [4, 7]: about 6 times
steady state Cmin relative to prediction from single dose studies [4, 7]: ~14 times
steady state drug exposure based on AUC0-24 relative to prediction from single dose data [4, 7]: about 8 times
time to steady state Paroxetine concentrations ([4]; 30 mg tablets daily, most subjects): approximately 10 days
increase of AUC when administered with food [4, 8]: 6%
increase of Cmax when administered with food [4, 8]: 29%
time to reach peak plasma concentration ([4]; single dose with food): 4.9 h
time to reach peak plasma concentration ([4]; single dose without food): 6.4 h

CN[C@H]1CC[C@@H](c2ccc(Cl)c(Cl)c2)c2ccccc21.Cl [Sertraline, (1S-cis)-4(3,4-dichlorophenyl)-1,2,3,4-tetrahydro-N-methyl-1-naphthalenamine hydrochloride]
Tmax ([5]; oral concentrate, single dose with food): 7.0 h
increase of Cmax with food ([5]; tablet, single dose with and without food): 25%
